Experimental data from US12397058B2, “Metabolically stable prodrugs” (TSRL, Inc., priority 2018, dated 2025).
Where two headings read alike, the source gives them in different places.

Experiments:
HSV2 G = assay: Primary CPE reduction assay in HFF cells, HSV2 G; type: cell-based, Herpes Simplex Virus 2
Description: (§1) Screening Assays for HSV-1, HSV-2, CMV, and VZV
(§2) Cells. Human foreskin fibroblast (HFF) cells were prepared from human foreskin tissue. The tissue was incubated at 4° C. for 4 h in Clinical Medium and then placed in phosphate buffered saline (PBS) to remove the red blood cells, and resuspended in trypsin/EDTA solution. The tissue suspension was incubated at 37° C. and gently agitated to disperse the cells, which were collected by centrifugation. Cells were resuspended in 4 ml Clinical Medium and placed in a flask and incubated at 37° C. in a humidified CO2 incubator for 24 h. The media was then replaced with fresh Clinical Medium and the cell growth was monitored daily until a confluent monolayer has formed. The HFF cells were then expanded through serial passages in standard growth medium of MEM with Earl's salts supplemented with 10% FBS and antibiotics. The cells were passaged routinely and used for assays at or below passage 10.
(§3) Primary Cytopathic Effect (CPE) Reduction Assay. Low passage (3-10) HFF cells were trypsinized, counted, and seeded into 96 well tissue culture plates in 0.1 ml of MEM supplemented with 10% FBS. The cells were then incubated for 24 h at 37° C. The media was then removed and 100 μl of MEM containing 2% FBS was added to all but the first row. In the first row, 125 μl of media containing the experimental drug was added in triplicate wells. Media alone was added to both cell and virus control wells. The drug in the first row of wells was then diluted serially 1:5 throughout the remaining. The plates were then incubated for 60 min and 100 μl of a virus suspension was added to each well, excluding cell control wells which received 100 μl of MEM. The plates were then incubated at 37° C. in a CO2 incubator for three days for HSV-1 and HSV-2, 10 days for VZV, or 14 d for CMV. After the incubation period, media was aspirated and the cells stained with crystal violet in formalin for 4 h. The stain was then removed and the plates were rinsed until all excess stain was removed. The plates were allowed to dry for 24 h and the amount of CPE in each row determined using a BioTek Multiplate Autoreader. EC50 and CC50 values were determined by comparing drug treated and untreated cells using a computer program.

HSV1 E377 = assay: microbe, parasite or virus in culture; type: cell-based, Herpes Simplex Virus 1
Description: as §1, §2, §3

mCMV Smith = assay: Primary CPE reduction assay, mCMV Smith; type: cell-based, murine Cytomegalovirus; conditions: for EC50: Murid betaherpesvirus 1, read-out: EC50 (50% reduction in the Cytopathic Effect of the virus)
VZV Ellen = assay: microbe, parasite or virus in culture; type: cell-based, Vericella Zoster Virus
Description: as §1, §2, §3

hCMV1 AD169 = assay: Primary CPE reduction assay in HFF cells, hCMV AD169; type: cell-based, human Cytomegalovirus
Description: as §1, §2, §3

hCMV2 GDGRK17 = assay: Primary CPE reduction assay in HFF cells, hCMV GDGRK17; type: cell-based, human Cytomegalovirus; conditions: for EC50: Human betaherpesvirus 5, HFF, read-out: EC50 (50% reduction in the Cytopathic Effect of the virus); for TI (therapeutic index derived from EC50/CC50): hCMV2 GDGRK17, HFF cells
Description: as §1, §2, §3

[1] = tested on: Human Cytomegalovirus Strain AD169; assay: Additional study versus Human Cytomegalovirus Strain AD169 in HFF cells (procedures of US 2011/0263535 A1); type: cell-based
Description: Additional studies in HFF cells were performed using the procedures as outlined in US Patent Application Publication No: 2011/0263535 A1 with compounds of 120, 121, and 122. Each of the compounds were tested versus Human Cytomegalovirus Strain AD169 in HFF cells using ganciclovir as a comparator.

HSV1 strain DM2.1 = assay: Primary CPE reduction assay in HFF cells, HSV1 strain DM2.1; type: cell-based, Herpes Simplex Virus 1
Description: as §1, §2
Primary Cytopathic Effect (CPE) Reduction Assay. Low passage (3-10) HFF cells were trypsinized, counted, and seeded into 96 well tissue culture plates in 0.1 ml of MEM supplemented with 10% FBS. […] The plates were allowed to dry for 24 h and the amount of CPE in each row determined using a BioTek Multiplate Autoreader. EC50 and CC50 values were determined by comparing drug treated and untreated cells using a computer program.

[2] = Human alphaherpesvirus 2, read-out: EC50 (50% reduction in the Cytopathic Effect of the virus), HSV2 G, HFF cells
[3] = Human alphaherpesvirus 1, read-out: EC50 (50% reduction in the Cytopathic Effect of the virus), HSV1 E377, HFF cells
[4] = Human betaherpesvirus 5, read-out: EC50 (50% reduction in the Cytopathic Effect of the virus), hCMV1 AD169, HFF cells
[5] = Human alphaherpesvirus 2, HFF, read-out: EC50 (50% reduction in the Cytopathic Effect of the virus)
[6] = Human alphaherpesvirus 3, HFF, read-out: EC50 (50% reduction in the Cytopathic Effect of the virus)
[7] = Human betaherpesvirus 5, AD169, HFF, read-out: EC50 (50% reduction in the Cytopathic Effect of the virus)
[8] = Human alphaherpesvirus 1, HFF, read-out: EC50 (50% reduction in the Cytopathic Effect of the virus)
[9] = Human Cytomegalovirus Strain AD169 in HFF cells
[10] = Human betaherpesvirus 5, AD169, HFF

| Compound | EC50 (HSV1 E377; [3]) [µM] | TI (therapeutic index derived from CC50/EC50) (HSV2 G; HSV2 G, HFF cells) | TI (therapeutic index derived from EC50/CC50) (mCMV Smith; mCMV Smith) | TI (therapeutic index derived from EC50/CC50) (VZV Ellen; VZV Ellen, HFF cells) | EC50 (hCMV1 AD169; [4]) [µM] | TI (therapeutic index derived from EC50/CC50) (hCMV1 AD169; hCMV1 AD169, HFF cells) | TI (therapeutic index derived from EC50/CC50) (HSV1 E377; HSV1 E377, HFF cells) | EC50 (hCMV2 GDGRK17) [µM] | TI (therapeutic index derived from EC50/CC50) (hCMV2 GDGRK17) | EC50 (HSV2 G; [5]) [µM] | EC50 (mCMV Smith) [µM] | EC50 (VZV Ellen; [6]) [µM] | EC50 (hCMV1 AD169; [7]) [µM] | EC50 (HSV1 E377; [8]) [µM] | Therapeutic index EC90/HFF Cytotoxicity 50% [1, 9] | EC90 [1, 10] [µM] | also measured |
| --- | --- | --- | --- | --- | --- | --- | --- | --- | --- | --- | --- | --- | --- | --- | --- | --- | --- |
| Nc1nc2c(ncn2COCCO)c(=O)[nH]1 [Acyclovir, reference compound] | 0.96 |  |  |  |  |  |  |  |  |  |  |  |  |  |  |  | EC50 (HSV2 G; [2]): 0.38 µM |
| CC1(CCCCCCCCCCCCS(=O)(=O)CCCOP(=O)(O)CO[C@H](CO)Cn2cnc(N)cc2=O)COC1 [Compound 110, Ammonium 3-((12-(3-methyloxetan-3-yl)dodecyl)sulfonyl)propyl Hydrogen ((((S)-1-(4-amino-6-oxopyrimidin-1(6H)-yl)-3-hydroxypropan-2-yl)oxy)methyl)phosphonate] | 0.16 | >1250 | 2213 | 225 | 0.01 | 184 | >313 | < 0.0003 | >3125 |  |  |  |  |  |  |  | EC50 (HSV2 G; [2]): 0.04 µM; EC50 (mCMV Smith; mCMV Smith): < 0.0003 µM; EC50 (VZV Ellen; Human alphaherpesvirus 3, read-out: EC50 (50% reduction in the Cytopathic Effect of the virus), VZV Ellen, HFF cells): 0.01 µM |
| CCOC(=O)P(=O)(OCCCS(=O)(=O)CCCCC1CCC1)OCCCS(=O)(=O)CCCCC1CCC1 [Compound 119, Ethyl (bis(3-((4-cyclobutylbutyl)sulfonyl)propoxy)phosphoryl)formate] |  |  |  |  | > 30 | <3 |  |  |  |  |  |  |  |  |  |  |  |
| N.Nc1ccn(C[C@@H](CO)OCP(=O)(O)OCCCS(=O)(=O)CCCCCCCCCCC2CCC2)c(=O)n1 [Compound 120, Ammonium 3-((10-cyclobutyldecyl)sulfonyl)propyl hydrogen ((((S)-1-(4-amino-2-oxopyrimidin-1(2H)-yl)-3-hydroxypropan-2-yl)oxy)methyl)phosphonate] |  | >3950 | >3125 | 25 |  | 74 | 149 | < 0.0003 | >2772 | 0.01 | < 0.0003 | 0.02 | 0.008 | 0.07 | >37 | < 0.02 |  |
| N.Nc1ccn(C[C@@H](CO)OCP(=O)(O)OCCCS(=O)(=O)CCCCCCCCCCCCC2CCC2)c(=O)n1 [Compound 121, Ammonium 3-((12-cyclobutyldodecyl)sulfonyl)propyl hydrogen ((((S)-1-(4-amino-2-oxopyrimidin-1(2H)-yl)-3-hydroxypropan-2-yl)oxy)methyl)phosphonate] |  | 498 | >3125 | 23 |  | >19 | 1159 | < 0.0003 | >2753 | 0.01 | < 0.0003 | 0.01 | < 0.01 | 0.01 | >15 | < 0.02 |  |
| N.Nc1ccn(C[C@@H](CO)OCP(=O)(O)OCCCS(=O)(=O)CCCCCCCCCCCCCC2CCC2)c(=O)n1 [Compound 122, Ammonium 3-((13-cyclobutyltridecyl)sulfonyl)propyl hydrogen ((((S)-1-(4-amino-2-oxopyrimidin-1(2H)-yl)-3-hydroxypropan-2-yl)oxy)methyl)phosphonate] |  | >14 | >3125 | 31 |  | >19 | 469 | < 0.0003 | >2209 | 0.14 | < 0.0003 | 0.007 | < 0.01 | 0.02 | >13 | < 0.02 |  |
| N.Nc1ccn(C[C@@H](CO)OCP(=O)(O)OCCCS(=O)(=O)CCCCCCCCCCCCCCC2CCC2)c(=O)n1 [Compound 123, Ammonium 3-((14-cyclobutyltetradecyl)sulfonyl)propyl (S)-(((1-(4-amino-2-oxopyrimidin-1(2H)-yl)-3-hydroxypropan-2-yl)oxy)methyl)phosphonate] |  |  |  |  |  | >5 |  |  |  |  |  |  | < 0.05 |  |  |  | TI (therapeutic index derived from EC50/CC50) (HSV1 strain DM2.1; HSV1 strain DM2.1 (footnote a), HFF cells): >142^a; EC50 (HSV1 strain DM2.1; [8]): < 0.05 µM |
| CCOC(=O)P(=O)(OCCCS(=O)(=O)CCCCCCCC1(C)COC1)OCCCS(=O)(=O)CCCCCCCC1(C)COC1 [Compound 124, Ethyl (bis(3-((7-(3-methyloxetan-3-yl)heptyl)sulfonyl)-propoxy)phosphoryl)formate] | > 150 |  |  |  | > 150 | 1 | 1 |  |  |  |  |  |  |  |  |  |  |
| CCCCCCCCCCCCCCCCCCS(=O)(=O)CCCOP(=O)(OCCCS(=O)(=O)CCCCCCCCCCCCCCCCCC)C(=O)OCC [Compound 125, Ethyl (bis(3-(octadecylsulfonyl)propoxy)phosphoryl)formate] |  |  |  |  | 132 | >1 |  |  |  |  |  |  |  |  |  |  |  |
| Nc1nc(O)c2ncn(COC(CO)CO)c2n1 [Ganciclovir, reference compound] |  |  | >882 |  | 1.63 | >92 |  | 0.15 | >1030 |  |  |  |  |  | 1 |  | EC50 (mCMV Smith; mCMV Smith): 0.17 µM; EC90 ([1]; Human betaherpesvirus 5, Human Cytomegalovirus Strain AD169 in HFF cells, read-out: EC90): > 150 µM |
